Results on 4 compounds are retold here after ChEMBL document CHEMBL1148250, “MexAB-OprM specific efflux pump inhibitors in Pseudomonas aeruginosa. Part 4: Addressing the problem of poor stability due to photoisomerization of an acrylic acid moiety” (2004).

Format in all cases: functional
Assay [1] concerns Pseudomonas aeruginosa. In words: Minimum concentration (using PAM1723, a strain of Pseudomonas aeruginosa) required to reduce antibacterial activity by 8 folds for Levofloxacin.
Assay [2] relates to Pseudomonas aeruginosa. Description: Minimum concentration (using PAM1723, a strain of Pseudomonas aeruginosa) required to reduce antibacterial activity by 8 folds for aztreonam in the presence 0.125% of human serum albumin.
The test system of assay [3] is Pseudomonas aeruginosa. In words: Minimum concentration (using PAM1723, a strain of Pseudomonas aeruginosa) required to reduce antibacterial activity by 8 folds for aztreonam in the absence of human serum albumin.
The subject of assay [4] is Pseudomonas aeruginosa. In words: Minimum concentration (using PAM1723, a strain of Pseudomonas aeruginosa) required to reduce antibacterial activity by 4 folds for Levofloxacin.

As to `CC(C)(C)c1csc(NC(=O)c2ccn3c(=O)c(/C=C/c4nnn[nH]4)c(N4CCC[C@@H](OC(N)=O)C4)nc3c2)n1`, the MPC8 in assay [1] is 0.5 µg/mL; in assay [2], 2 µg/mL; in assay [3] it was less than 0.25 µg/mL. The MPC4 in assay [4] is less than 0.25 µg/mL.
For `CC(C)c1csc(CCc2ccn3c(=O)c(/C=C/C(=O)O)c(N4CCCC(O)C4)nc3c2)n1` (stereo unspecified), the results for the MPC8 in assay [1], in assay [2] and in assay [3] were 8 µg/mL, 16 µg/mL and 8 µg/mL, respectively. This compound came in with an MPC4 in assay [4] of 0.5 µg/mL.
For the compound `CC(C)(C)c1csc(NC(=O)c2ccn3c(=O)c(/C=C/C(=O)O)c(N4CCC[C@@H](OC(N)=O)C4)nc3c2)n1`, the MPC8 in assay [1] is 1 µg/mL; in assay [2], 1 µg/mL; in assay [3], 0.5 µg/mL. This compound registered an MPC4 in assay [4] of less than 0.25 µg/mL.
As to `CC(C)(C)c1csc(NC(=O)c2ccn3c(=O)c(/C=C/c4nn[nH]n4)c(N4CCC[C@H](OC(N)=O)C4)nc3c2)n1`, the MPC8 in assay [1] worked out at 2 µg/mL; in assay [2], 4 µg/mL; in assay [3] it was 1 µg/mL. Further, the MPC4 in assay [4] came to 0.5 µg/mL.
